{"source": "patent US7396837B2", "about": "“Antitumoral analogs of lamellarins” (Pharma Mar, S.A.U., priority 2002, dated 2008)", "key": {"human topoisomerase I [1]": {"target": "T1, human topoisomerase I (Homo sapiens, UniProt P11387)", "T1 sequence (P11387 1-765)": "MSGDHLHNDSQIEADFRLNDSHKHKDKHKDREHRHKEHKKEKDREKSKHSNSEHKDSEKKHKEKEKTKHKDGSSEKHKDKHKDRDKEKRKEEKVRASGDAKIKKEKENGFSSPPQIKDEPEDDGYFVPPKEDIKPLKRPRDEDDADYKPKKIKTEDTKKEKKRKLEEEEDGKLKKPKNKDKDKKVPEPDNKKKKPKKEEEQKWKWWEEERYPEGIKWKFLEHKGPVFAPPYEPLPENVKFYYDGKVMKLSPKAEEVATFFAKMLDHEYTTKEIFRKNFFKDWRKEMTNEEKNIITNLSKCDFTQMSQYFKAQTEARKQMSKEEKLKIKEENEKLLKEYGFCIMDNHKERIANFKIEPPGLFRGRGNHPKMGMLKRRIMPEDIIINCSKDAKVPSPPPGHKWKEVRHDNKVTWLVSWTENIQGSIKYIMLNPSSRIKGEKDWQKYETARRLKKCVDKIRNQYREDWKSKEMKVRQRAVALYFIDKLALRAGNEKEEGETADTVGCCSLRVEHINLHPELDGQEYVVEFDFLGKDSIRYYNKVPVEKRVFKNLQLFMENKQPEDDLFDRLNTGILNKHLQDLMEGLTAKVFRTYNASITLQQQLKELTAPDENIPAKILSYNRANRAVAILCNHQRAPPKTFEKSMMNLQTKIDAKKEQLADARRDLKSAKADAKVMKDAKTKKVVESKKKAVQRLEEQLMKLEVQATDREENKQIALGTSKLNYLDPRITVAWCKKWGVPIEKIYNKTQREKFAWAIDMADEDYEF", "test": "Topoisomerase I DNA relaxation assay (supercoiled plasmid DNA)", "type": "biochemical", "conditions": "for stimulation of DNA cleavage by topoisomerase I / inhibition of topoisomerase I (nicked DNA band) in DNA relaxation assay: supercoiled plasmid DNA, each compound tested at 1 μM, agarose gel with ethidium bromide", "protocol": "(§1) Two assays, based on DNA relaxation and DNA cleavage (Bailly, C. DNA relaxation and cleavage assays to study topoisomerase I inhibitors. Methods Enzymol. 2001, 340, 610-623) were used evaluate the effects of the lamellarin analogs on the catalytic activity of human topoisomerase I.\nIn the first assay, a supercoiled plasmid DNA was relaxed with topoisomerase I in the absence or presence of the test compounds, each tested at 1 μM. DNA relaxation products were then resolved by gel electrophoresis on agarose gels containing ethidium bromide to stain the DNA."}, "human topoisomerase I [2]": {"target": "T1, human topoisomerase I", "test": "Topoisomerase I cleavage of radiolabeled 117-bp DNA fragment", "type": "biochemical", "conditions": "117-bp DNA restriction fragment 3' end-labeled, sequencing-type polyacrylamide gels", "from_the_text": "as §1\nA second assay, based on the cleavage of a radiolabeled DNA substrate by topoisomerase I, was used to confirm that the cationic lamellarin derivatives do effectively function as topoisomerase I poisons. A 117-bp DNA restriction fragment uniquely end-labeled at the 3′ end was subjected to cleavage by topoisomerase I in the presence of the different compounds and the resulting DNA cleavage products were resolved on sequencing-type polyacrylamide gels. The advantage of this assay is to detect the cleavage sites and to locate their positions with nucleotide resolution, providing thus information on the site selectivity of cleavage."}, "fertilised sea urchin": {"tested_on": "fertilised sea urchin", "conditions": "fertilised sea urchin assay; cited from earlier work"}, "P388": {"tested_on": "P388", "conditions": "P388 cell line in culture; cited from earlier work"}, "A549": {"tested_on": "A549", "conditions": "A549 cell line in culture; cited from earlier work"}, "lung cancer cell lines": {"tested_on": "lung cancer cell lines", "conditions": "acting as a Type IV microtubule poison; cited from earlier work"}}}
{"compound": "COc1cc(-c2c3c4cc(OC)c(OC(=O)[C@@H](N)Cc5ccccc5)cc4oc(=O)c3n3ccc4cc(OC(=O)[C@@H](N)Cc5ccccc5)c(OC)cc4c23)ccc1OC(=O)[C@@H](N)Cc1ccccc1", "note": "[Compound 25]", "values": [{"measurement": "potency at inhibiting topoisomerase I relative to the other amino acid derivatives", "setting": "human topoisomerase I [1]; DNA relaxation assay", "result": "significantly less potent than the other amino acid derivatives"}, {"measurement": "stimulation of DNA cleavage by topoisomerase I / inhibition of topoisomerase I (nicked DNA band) in DNA relaxation assay", "setting": "human topoisomerase I [1]", "result": "marked inhibition of topoisomerase I"}, {"measurement": "topoisomerase I-mediated DNA cleavage sites / cleavage profile", "setting": "human topoisomerase I [2]", "result": "Cleavage profiles identical to that of 3"}]}
{"compound": "COc1cc(-c2c3n(c4c(=O)oc5cc(O)c(OC)cc5c24)CCc2c-3cc(OC)c(OC)c2OC)ccc1O", "note": "[Lamellarin C, lamellarin C]", "values": [{"measurement": "inhibition of cell division", "setting": "fertilised sea urchin", "result": "inhibition of cell division"}]}
{"compound": "COc1cc2c(cc1O)oc(=O)c1c2c(-c2ccc(OC)c(OC)c2)c2n1CCc1c-2cc(OC)c(OC)c1OC", "note": "[Lamellarin I, lamellarin I]", "values": [{"measurement": "cytotoxicity", "setting": "P388", "result": "comparable cytoxicity"}, {"measurement": "cytotoxicity", "setting": "A549", "result": "comparable cytoxicity"}]}
{"compound": "COc1cc(-c2c3n(c4c(=O)oc5cc(O)c(OC)cc5c24)CCc2c-3cc(OC)c(OC)c2O)ccc1O", "note": "[Lamellarin K, lamellarin K]", "values": [{"measurement": "cytotoxicity", "setting": "P388", "result": "comparable cytoxicity"}, {"measurement": "cytotoxicity", "setting": "A549", "result": "comparable cytoxicity"}]}
{"compound": "COc1ccc(-c2c3n(c4c(=O)oc5cc(O)c(OC)cc5c24)CCc2cc(O)c(OC)cc2-3)cc1O", "note": "[Lamellarin L, lamellarin L]", "values": [{"measurement": "cytotoxicity", "setting": "P388", "result": "comparable cytoxicity"}, {"measurement": "cytotoxicity", "setting": "A549", "result": "comparable cytoxicity"}]}
{"compound": "COc1ccc(-c2c3c4cc(OC)c(O)cc4oc(=O)c3n3ccc4cc(O)c(OC)cc4c23)cc1O", "note": "[Lamellarin N, lamellarin N]", "values": [{"measurement": "activity in lung cancer cell lines", "setting": "lung cancer cell lines", "result": "exhibit activity in lung cancer cell lines"}]}
{"compound": "CC[C@@]1(O)C(=O)OCc2c1cc1n(c2=O)Cc2cc3ccccc3nc2-1", "note": "[camptothecin, reference compound]", "values": [{"measurement": "stimulation of DNA cleavage by topoisomerase I / inhibition of topoisomerase I (nicked DNA band) in DNA relaxation assay", "setting": "human topoisomerase I [1]", "result": "strongly promotes DNA cleavage by topoisomerase I"}, {"measurement": "topoisomerase I-mediated DNA cleavage sites / cleavage profile", "setting": "human topoisomerase I [2]", "result": "T^↓G only"}, {"measurement": "topoisomerase I-mediated DNA cleavage sites / cleavage profile", "setting": "human topoisomerase I [2]; listed as CPT", "result": "three sites at nucleotide positions 26, 48 and 81"}]}
